Data reported in patent US20200017496A1 (priority 2017, published 2020).
Where two headings read alike, the source gives them in different places.

How the values were obtained:
Type in all cases: cell-based
[1] = test system: Proteus mirabilis (PMI) isolates; assay: microbe, parasite or virus in culture; details: AF1 @ 4 μg/mL
In short: (§1)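 Inoculum 5·10^5 CFU/mL (final), log phase, ca-MHB; 16-20 h, 35° C, ambient air. MIC = lowest conc. with no visible growth; ATB MIC read at each compound level.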

[2] = test system: Klebsiella pneumoniae (KPN) isolates; assay: MIC of compounds alone and combined with antibacterials, broth microdilution (CLSI); details: AF1 @ 4 μg/mL
In short: as §1

[3] = test system: Providencia stuartii (PST) isolates; assay: as above; details: AF1 @ 4 μg/mL
In short: as §1

[4] = test system: Enterobacter aerogenes (EAE) isolates; assay: as above; details: for MIC ATB in combination: AF1 @ 4 μg/mL; for MIC: Klebsiella aerogenes, ATB alone, read-out: MIC
In short: as §1

[5] = test system: Citrobacter freundii (CFR) isolates; assay: as above
In short: as §1

[6] = test system: Morganella morganii (MMO) isolates; assay: as above; details: AF1 @ 4 μg/mL
In short: as §1

Compound: C=CC1=C(C(=O)O)N2C(=O)[C@@H](NC(=O)/C(=N\O)c3csc(N)n3)[C@H]2SC1 [CDR, Cefdinir]
- MIC ATB in combination ([1]; PMI UFR82): 0.5 µg/mL
- MIC ATB in combination ([1]; PMI UFR120): <=0.25 μg/mL
- MIC ATB in combination ([1]; PMI UFR121): <=0.25 μg/mL
- MIC ATB in combination ([1]; PMI UFR122): <=0.25 μg/mL
- MIC ATB in combination ([1]; PMI UFR123): <=0.25 μg/mL
- MIC ATB in combination ([1]; PMI UFR124): <=0.25 μg/mL
- MIC ATB in combination ([1]; PMI UFR125): <=0.25 μg/mL
- MIC ATB in combination ([1]; PMI UFR126): <=0.25 μg/mL
- MIC ATB in combination ([1]; PMI UFR127): <=0.25 μg/mL
- MIC ATB in combination ([1]; PMI UFR129): <=0.25 μg/mL
- MIC ATB in combination ([1]; PMI UFR130): <=0.25 μg/mL
- MIC ATB in combination ([1]; PMI UFR237): <=0.25 μg/mL
- MIC ATB in combination ([2]; KPN 6299): <=0.25 μg/mL
- MIC ATB in combination ([2]; KPN 110376): 0.5 µg/mL
- MIC ATB in combination ([2]; KPN 131119): 1 µg/mL
- MIC ATB in combination ([2]; KPN 140513): 16 µg/mL
- MIC ATB in combination ([2]; KPN 160143): <=0.25 μg/mL
- MIC ATB in combination ([2]; KPN 190128): 1 µg/mL
- MIC ATB in combination ([2]; KPN 190270): 1 µg/mL
- MIC ATB in combination ([2]; KPN 190425): <=0.25 μg/mL
- MIC ATB in combination ([2]; KPN 190551): <=0.25 μg/mL
- MIC ATB in combination ([2]; KPN 200047): <=0.25 μg/mL
- MIC ATB in combination ([2]; KPN 200327): <=0.25 μg/mL
- MIC ATB in combination ([2]; KPN 260251): 0.5 µg/mL
- MIC ATB in combination ([2]; KPN 260252): 16 µg/mL
- MIC ATB in combination ([2]; KPN 260376): <=0.25 μg/mL
- MIC ATB in combination ([2]; KPN 270077): 1 µg/mL
- MIC ATB in combination ([2]; KPN 700603): 0.5 µg/mL
- MIC ATB in combination ([2]; KPN ARA): 0.5 µg/mL
- MIC ATB in combination ([2]; KPN BAA-1898): 0.5 µg/mL
- MIC ATB in combination ([2]; KPN LIB): 1 µg/mL
- MIC ATB in combination ([2]; KPN UFR22_O): 1 µg/mL
- MIC ATB in combination ([2]; KPN UFR23): 0.5 µg/mL
- MIC ATB in combination ([2]; KPN UFR24): 4 µg/mL
- MIC ATB in combination ([2]; KPN UFR25): <=0.25 μg/mL
- MIC ATB in combination ([2]; KPN UFR27): 8 µg/mL
- MIC ATB in combination ([2]; KPN UFR28): 1 µg/mL
- MIC ATB in combination ([2]; KPN UFR65): 2 µg/mL
- MIC ATB in combination ([2]; KPN UFR66): 2 µg/mL
- MIC ATB in combination ([2]; KPN UFR67): 16 µg/mL
- MIC ATB in combination ([2]; KPN UFR68): 2 µg/mL
- MIC ATB in combination ([2]; KPN UFR76): >128 µg/mL
- MIC ATB in combination ([2]; KPN UFR77): 8 µg/mL
- MIC ATB in combination ([2]; KPN UFR78): 128 µg/mL
- MIC ATB in combination ([2]; KPN UFR79): 16 µg/mL
- MIC ATB in combination ([2]; KPN UFR80): 1 µg/mL
- MIC ATB in combination ([2]; KPN UFR81): 16 µg/mL
- MIC ATB in combination ([2]; KPN UFR215): 0.5 µg/mL
- MIC ATB in combination ([2]; KPN UFR216): <=0.25 μg/mL
- MIC ATB in combination ([2]; KPN UFR217): <=0.25 μg/mL
- MIC ATB in combination ([2]; KPN UFR219): <=0.25 μg/mL
- MIC ATB in combination ([2]; KPN UFR220): 2 µg/mL
- MIC ATB in combination ([2]; KPN UFR221): 2 µg/mL
- MIC ATB in combination ([2]; KPN UFR222): 16 µg/mL
- MIC ATB in combination ([2]; KPN UFR227O): 32 µg/mL
- MIC ATB in combination ([3]; PST UFR94): <=0.25 μg/mL
- MIC ATB in combination ([3]; PST UFR95): 1 µg/mL
- MIC ATB in combination ([3]; PST UFR235): 2 µg/mL
- MIC ATB in combination ([4]; EAE 49469): 16 µg/mL
- MIC ATB in combination ([4]; EAE 200261): 8 µg/mL
- MIC ATB in combination ([4]; EAE UFR199): 1 µg/mL
- MIC ATB in combination ([4]; EAE UFR201): <=0.25 μg/mL
- MIC ATB in combination ([4]; EAE UFR202): 4 µg/mL
- MIC ATB in combination ([4]; EAE UFR213): 4 µg/mL
- MIC ([4]; strain EAE 200261 (TEM-x, AmpC)): > 256 µg/mL
- MIC ([4]; strain EAE UFR199 (TEM-1b, SHV-12, KPC-2, OXA-9)): > 256 µg/mL
- MIC ATB in combination ([5]; CFR UFR10, AF1 @ 4 μg/mL): <=0.25 μg/mL
- MIC ATB in combination ([5]; CFR UFR11, AF1 @ 4 μg/mL): 128 µg/mL
- MIC ATB in combination ([5]; CFR UFR83, AF1 @ 4 μg/mL): >128 µg/mL
- MIC ATB in combination ([5]; CFR UFR146, AF1 @ 4 μg/mL): 0.5 µg/mL
- MIC ATB in combination ([5]; CFR UFR248, AF1 @ 4 μg/mL): 0.5 µg/mL
- MIC ATB in combination ([5]; CFR UFR249, AF1 @ 4 μg/mL): <=0.25 μg/mL
- MIC ATB in combination ([5]; CFR UFR250, AF1 @ 4 μg/mL): <=0.25 μg/mL
- MIC ATB in combination ([5]; strain CFR UFR253, antibacterial combined with AF1 @ 4 μg/mL): <=0.25 μg/mL
- MIC ATB in combination ([5]; strain CFR UFR254, antibacterial combined with AF1 @ 4 μg/mL): <=0.25 μg/mL
- MIC ATB in combination ([6]; MMO 200321): 4 µg/mL
- MIC ATB in combination ([6]; MMO UFR144): 4 µg/mL
- MIC ATB in combination ([6]; MMO UFR240): 0.5 µg/mL
- MIC ATB in combination ([6]; MMO UFR241): 4 µg/mL
- MIC ATB in combination ([6]; MMO UFR242): 4 µg/mL
- MIC ATB in combination ([6]; MMO UFR243): 4 µg/mL
- MIC ATB in combination ([6]; MMO UFR244): 2 µg/mL
- MIC ATB in combination ([6]; MMO UFR245): 4 µg/mL
- MIC ATB in combination ([6]; MMO UFR246): 2 µg/mL
- MIC ATB in combination ([6]; MMO UFR247): 1 µg/mL
